Reference: patent US11919901B2 (Syndax Pharmaceuticals, Inc., priority 2021, dated 2024)
pEC50, pIC50, pKi: −log10 of the molar value.

What was measured:
hERG = hERG (Homo sapiens (Human), UniProt Q12809); assay: Patch clamp assay (hERG tail currents, whole-cell); assay type: cell-based; settings: hERG transfected HEK 293 cells; for hERG % Remaining 30 μM: 30 μM compound; for hERG % Remaining 10 μM: 10 μM compound
Menin-MLL = Menin-MLL (Homo sapiens (Human), UniProt O00255); assay: Determination of binding constants (Ki) to Menin-MLL (HTRF); settings: HTRF, 0.25 nM H-FL-Menin, 3.2 nM FITC-MLL-4-43, 24 hr incubation; for pKi: read-out: Menin-MLL Ki HTRF Assay: Ki
Sequence of Menin-MLL (O00255 whole entry): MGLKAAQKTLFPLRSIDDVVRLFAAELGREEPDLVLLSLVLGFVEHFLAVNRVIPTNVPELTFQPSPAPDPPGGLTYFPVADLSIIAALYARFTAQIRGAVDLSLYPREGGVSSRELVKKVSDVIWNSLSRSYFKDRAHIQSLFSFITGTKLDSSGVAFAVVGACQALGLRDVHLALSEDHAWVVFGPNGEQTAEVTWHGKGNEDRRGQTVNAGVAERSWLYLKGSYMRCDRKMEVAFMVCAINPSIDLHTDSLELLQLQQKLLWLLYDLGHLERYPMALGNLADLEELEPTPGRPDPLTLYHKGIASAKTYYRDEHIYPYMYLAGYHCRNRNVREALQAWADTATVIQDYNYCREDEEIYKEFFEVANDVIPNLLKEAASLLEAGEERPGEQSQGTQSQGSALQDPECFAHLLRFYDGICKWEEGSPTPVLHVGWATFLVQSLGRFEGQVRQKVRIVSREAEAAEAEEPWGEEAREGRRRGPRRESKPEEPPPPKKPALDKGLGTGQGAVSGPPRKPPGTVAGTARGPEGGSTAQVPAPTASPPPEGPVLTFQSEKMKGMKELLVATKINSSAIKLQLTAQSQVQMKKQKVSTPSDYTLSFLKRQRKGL

Sequence of hERG (Q12809 whole entry): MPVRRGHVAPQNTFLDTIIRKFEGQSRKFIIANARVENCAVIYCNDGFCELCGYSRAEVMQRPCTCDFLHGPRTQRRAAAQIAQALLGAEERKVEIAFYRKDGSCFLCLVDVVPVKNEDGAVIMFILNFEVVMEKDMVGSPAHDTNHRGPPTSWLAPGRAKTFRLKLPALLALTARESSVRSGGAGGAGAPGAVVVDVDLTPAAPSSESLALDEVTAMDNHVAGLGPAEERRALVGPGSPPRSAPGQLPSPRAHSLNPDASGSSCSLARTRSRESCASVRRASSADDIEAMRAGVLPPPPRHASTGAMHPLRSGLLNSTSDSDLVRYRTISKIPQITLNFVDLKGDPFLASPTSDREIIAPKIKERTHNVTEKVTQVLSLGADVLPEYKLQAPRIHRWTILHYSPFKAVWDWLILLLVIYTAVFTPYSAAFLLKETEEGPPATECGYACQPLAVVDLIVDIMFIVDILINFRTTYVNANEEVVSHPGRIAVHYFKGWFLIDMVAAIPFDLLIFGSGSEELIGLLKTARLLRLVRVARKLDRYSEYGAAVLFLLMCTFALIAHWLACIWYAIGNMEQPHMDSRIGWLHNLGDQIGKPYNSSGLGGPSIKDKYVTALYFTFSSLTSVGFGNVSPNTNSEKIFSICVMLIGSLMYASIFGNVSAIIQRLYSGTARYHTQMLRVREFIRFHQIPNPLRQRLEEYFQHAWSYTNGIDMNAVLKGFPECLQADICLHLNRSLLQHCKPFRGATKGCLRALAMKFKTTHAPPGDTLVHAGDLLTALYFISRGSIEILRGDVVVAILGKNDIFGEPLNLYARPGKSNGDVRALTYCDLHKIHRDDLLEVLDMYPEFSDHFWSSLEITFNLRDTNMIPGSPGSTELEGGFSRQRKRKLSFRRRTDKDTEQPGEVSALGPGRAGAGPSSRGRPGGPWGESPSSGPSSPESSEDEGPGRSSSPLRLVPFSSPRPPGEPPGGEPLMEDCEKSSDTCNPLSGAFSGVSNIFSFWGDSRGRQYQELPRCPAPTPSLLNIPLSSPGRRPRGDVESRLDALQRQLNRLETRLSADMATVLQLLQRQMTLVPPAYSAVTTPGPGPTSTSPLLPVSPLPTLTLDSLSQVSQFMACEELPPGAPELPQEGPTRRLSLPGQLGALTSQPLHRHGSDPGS

Structure (SMILES)	hERG % Remaining 30 μM (hERG)	pKi (Menin-MLL)	hERG % Remaining 10 μM (hERG)	pEC50 (Menin-MLL)	pIC50 (hERG)
CC(C)N(CC(F)F)C(=O)c1cc(F)ccc1Oc1cncnc1N1CC2(CCN(C[C@@H]3CC[C@@H](NS(=O)(=O)c4ccn(C)n4)CO3)CC2)C1 [Compound 103, N-(2,2-Difluoroethyl)-5-fluoro-N-isopropyl-2-((4-(7-(((2S,5R)-5-((1-methyl-1H-pyrazole)-3-sulfonamido)tetrahydro-2H-pyran-2-yl)methyl)-2,7-diazaspiro[3.5]nonan-2-yl)pyrimidin-5-yl)oxy)benzamide]	+++ (“+++” means ≥66%)	> 9.00	–	–	–
Cc1c(S(=O)(=O)N[C@@H]2CC[C@@H](CN3CCC4(CC3)CN(c3ncncc3Oc3ccc(F)cc3C(=O)N(CC(F)F)C(C)C)C4)OC2)cnn1C [Compound 104, N-(2,2-Difluoroethyl)-2-((4-(7-(((2S,5R)-5-((1,5-dimethyl-1H-pyrazole)-4-sulfonamido)tetrahydro-2H-pyran-2-yl)methyl)-2,7-diazaspiro[3.5]nonan-2-yl)pyrimidin-5-yl)oxy)-5-fluoro-N-isopropylbenzamide]	+++ (“+++” means ≥66%)	> 9.00	–	–	–
Cc1nn(C)cc1S(=O)(=O)N[C@@H]1CC[C@@H](CN2CCC3(CC2)CN(c2ncncc2Oc2ccc(F)cc2C(=O)N(CC(F)F)C(C)C)C3)OC1 [Compound 105, N-(2,2-Difluoroethyl)-2-((4-(7-(((2S,5R)-5-((1,3-dimethyl-1H-pyrazole)-4-sulfonamido)tetrahydro-2H-pyran-2-yl)methyl)-2,7-diazaspiro[3.5]nonan-2-yl)pyrimidin-5-yl)oxy)-5-fluoro-N-isopropylbenzamide]	+++ (“+++” means ≥66%)	> 9.00	–	–	–
CC(C)N(CC(F)(F)F)C(=O)c1cc(F)ccc1Oc1cncnc1N1CC2(CCN(C[C@@H]3CC[C@@H](NS(=O)(=O)N(C)C)CO3)CC2)C1 [Compound 107, 2-((4-(7-(((2S,5R)-5-((N,N-Dimethylsulfamoyl)amino)tetrahydro-2H-pyran-2-yl)methyl)-2,7-diazaspiro[3.5]nonan-2-yl)pyrimidin-5-yl)oxy)-5-fluoro-N-isopropyl-N-(2,2,2-trifluoroethyl)benzamide]	++ (“++” means ≥33% and <66%)	> 9.00	+++ (“+++” means ≥66%)	> 7.30	–
CC(C)N(C(=O)c1cc(F)ccc1Oc1cncnc1N1CC2(CCN(C[C@@H]3CC[C@@H](NS(=O)(=O)C4CC4)CO3)CC2)C1)C1CC(F)(F)C1 [Compound 111, 2-((4-(7-(((2S,5R)-5-(Cyclopropanesulfonamido)tetrahydro-2H-pyran-2-yl)methyl)-2,7-diazaspiro[3.5]nonan-2-yl)pyrimidin-5-yl)oxy)-N-(3,3-difluorocyclobutyl)-5-fluoro-N-isopropylbenzamide]	+ (“+” means <33%)	> 9.00	++ (“++” means ≥33% and <66%)	> 7.30	–
CC(C)N(C(=O)c1cc(F)ccc1Oc1cncnc1N1CC2(CCN(C[C@@H]3CC[C@@H](NS(=O)(=O)N(C)C)CO3)CC2)C1)C1CC(F)(F)C1 [Compound 113, N-(3,3-Difluorocyclobutyl)-2-((4-(7-(((2S,5R)-5-((N,N-dimethylsulfamoyl)amino)tetrahydro-2H-pyran-2-yl)methyl)-2,7-diazaspiro[3.5]nonan-2-yl)pyrimidin-5-yl)oxy)-5-fluoro-N-isopropylbenzamide]	++ (“++” means ≥33% and <66%)	> 9.00	+++ (“+++” means ≥66%)	> 7.30	–
CCN(CC)S(=O)(=O)N[C@@H]1CC[C@@H](CN2CCC3(CC2)CN(c2ncncc2Oc2ccc(F)cc2C(=O)N(C(C)C)C2CC(F)(F)C2)C3)OC1 [Compound 114, 2-((4-(7-(((2S,5R)-5-((N,N-Diethylsulfamoyl)amino)tetrahydro-2H-pyran-2-yl)methyl)-2,7-diazaspiro[3.5]nonan-2-yl)pyrimidin-5-yl)oxy)-N-(3,3-difluorocyclobutyl)-5-fluoro-N-isopropylbenzamide]	+ (“+” means <33%)	> 9.00	+ (“+” means <33%)	> 7.30	–
CC(C)N(C(=O)c1cc(F)ccc1Oc1cncnc1N1CC2(CCN(C[C@@H]3CC[C@@H](NS(=O)(=O)N4CCC4)CO3)CC2)C1)C1CC(F)(F)C1 [Compound 118, 2-((4-(7-(((2S,5R)-5-(Azetidine-1-sulfonamido)tetrahydro-2H-pyran-2-yl)methyl)-2,7-diazaspiro[3.5]nonan-2-yl)pyrimidin-5-yl)oxy)-N-(3,3-difluorocyclobutyl)-5-fluoro-N-isopropylbenzamide]	+ (“+” means <33%)	> 9.00	++ (“++” means ≥33% and <66%)	–	–
CC(C)N(C(=O)c1cc(F)ccc1Oc1cncnc1N1CC2(CCN(C[C@@H]3CC[C@@H](NS(=O)(=O)N(C)C(C)C)CO3)CC2)C1)C1CC(F)(F)C1 [Compound 119, N-(3,3-Difluorocyclobutyl)-5-fluoro-N-isopropyl-2-((4-(7-(((2S,5R)-5-((N-isopropyl-N-methylsulfamoyl)amino)tetrahydro-2H-pyran-2-yl)methyl)-2,7-diazaspiro[3.5]nonan-2-yl)pyrimidin-5-yl)oxy)benzamide]	+ (“+” means <33%)	> 9.00	–	–	–
C[C@@H]1COC[C@@H](C)N1C(=O)c1cc(F)ccc1Oc1cncnc1N1CC2(CCN(C[C@@H]3CC[C@@H](NS(=O)(=O)c4ccccc4)CO3)CC2)C1 [Compound 120, N-((3R,6S)-6-((2-(5-(2-((3R,5R)-3,5-Dimethylmorpholine-4-carbonyl)-4-fluorophenoxy)pyrimidin-4-yl)-2,7-diazaspiro[3.5]nonan-7-yl)methyl)tetrahydro-2H-pyran-3-yl)benzenesulfonamide]	++ (“++” means ≥33% and <66%)	> 9.00	+++ (“+++” means ≥66%)	> 7.30	–
C[C@@H]1COC[C@@H](C)N1C(=O)c1cc(F)ccc1Oc1cncnc1N1CC2(CCN(C[C@@H]3CC[C@@H](NS(=O)(=O)N4CCC4)CO3)CC2)C1 [Compound 121, N-((3R,6S)-6-((2-(5-(2-((3R,5R)-3,5-Dimethylmorpholine-4-carbonyl)-4-fluorophenoxy)pyrimidin-4-yl)-2,7-diazaspiro[3.5]nonan-7-yl)methyl)tetrahydro-2H-pyran-3-yl)azetidine-1-sulfonamide]	+++ (“+++” means ≥66%)	> 9.00	–	–	–
Cc1nc(S(=O)(=O)N[C@@H]2CC[C@@H](CN3CCC4(CC3)CN(c3ncncc3Oc3ccc(F)cc3C(=O)N3[C@H](C)COC[C@H]3C)C4)OC2)cs1 [Compound 122, N-((3R,6S)-6-((2-(5-(2-((3R,5R)-3,5-Dimethylmorpholine-4-carbonyl)-4-fluorophenoxy)pyrimidin-4-yl)-2,7-diazaspiro[3.5]nonan-7-yl)methyl)tetrahydro-2H-pyran-3-yl)-2-methylthiazole-4-sulfonamide]	+++ (“+++” means ≥66%)	> 9.00	–	–	≤ 4.30
C[C@@H]1COC[C@@H](C)N1C(=O)c1cc(F)ccc1Oc1cncnc1N1CC2(CCN(C[C@@H]3CC[C@@H](NS(=O)(=O)N(C)C)CO3)CC2)C1 [Compound 123, {[(3R,6S)-6-{[2-(5-{2-[(3R,5R)-3,5-Dimethylmorpholine-4-carbonyl]-4-fluorophenoxy}pyrimidin-4-yl)-2,7-diazaspiro[3.5]nonan-7-yl]methyl}oxan-3-yl]sulfamoyl}dimethylamine]	+++ (“+++” means ≥66%)	> 9.00	–	–	–
CCNS(=O)(=O)N[C@@H]1CC[C@@H](CN2CCC3(CC2)CN(c2ncncc2Oc2ccc(F)cc2C(=O)N2[C@H](C)COC[C@H]2C)C3)OC1 [Compound 125, {[(3R,6S)-6-{[2-(5-{2-[(3R,5R)-3,5-Dimethylmorpholine-4-carbonyl]-4-fluorophenoxy}pyrimidin-4-yl)-2,7-diazaspiro[3.5]nonan-7-yl]methyl}oxan-3-yl]sulfamoyl}(ethyl)amine]	+++ (“+++” means ≥66%)	> 9.00	–	–	–
C[C@@H]1COC[C@H](C)N1C(=O)c1cc(F)ccc1Oc1cncnc1N1CC2(CCN(C[C@@H]3CC[C@@H](NS(=O)(=O)c4ccccc4)CO3)CC2)C1 [Compound 130, N-((3R,6S)-6-((2-(5-(2-((3S,5R)-3,5-Dimethylmorpholine-4-carbonyl)-4-fluorophenoxy)pyrimidin-4-yl)-2,7-diazaspiro[3.5]nonan-7-yl)methyl)tetrahydro-2H-pyran-3-yl)benzenesulfonamide]	++ (“++” means ≥33% and <66%)	> 9.00	+++ (“+++” means ≥66%)	> 7.30	–
CC(C)N(C(=O)c1cc(F)ccc1Oc1cncnc1N1CC2(CCN(C[C@@H]3CC[C@@H](NS(=O)(=O)N4CCC4)CO3)CC2)C1)[C@H]1CCOC1 [Compound 134, 2-((4-(7-(((2S,5R)-5-(Azetidine-1-sulfonamido)tetrahydro-2H-pyran-2-yl)methyl)-2,7-diazaspiro[3.5]nonan-2-yl)pyrimidin-5-yl)oxy)-5-fluoro-N-isopropyl-N-((S)-tetrahydrofuran-3-yl)benzamide]	+++ (“+++” means ≥66%)	> 9.00	–	–	–
CC(C)N(CCC#N)C(=O)c1cc(F)ccc1Oc1cncnc1N1CC2(CCN(C[C@@H]3CC[C@@H](NS(=O)(=O)c4ccccc4)CO3)CC2)C1 [Compound 136, N-(2-Cyanoethyl)-5-fluoro-N-isopropyl-2-((4-(7-(((2S,5R)-5-(phenylsulfonamido)tetrahydro-2H-pyran-2-yl)methyl)-2,7-diazaspiro[3.5]nonan-2-yl)pyrimidin-5-yl)oxy)benzamide]	+ (“+” means <33%)	> 9.00	+++ (“+++” means ≥66%)	> 7.30	–
